Measurements published in patent publication US8833457B2, “Sulfates and phosphates as allosteric effectors in mannanohydrolase enzyme breakers” (Baker Hughes Incorporated, priority 2011, dated 2014).

Tested on: mannanohydrolase, GBW-22C
Assay: Viscosity reduction of borate-crosslinked guar gel by mannanohydrolase enzyme breaker with allosteric effector (Chandler HTHP 5500 Viscometer)
Type: biochemical
Conditions: 150° F., 500 psi
Experimental: A solution was made comprising: 17 ppt of guar polymer, GW-3LDF; 1 gpt of clay stabilizer, Claytreat-3C; 1.5 gpt of buffer, BF-7L; 1 gpt of crosslinking agent, XLW-32; 1 gpt mannanohydrolase, GBW-22C, diluted 1/100 with distilled water; and 1 gpt of a 1% wt. solution of Na2SO4 (all components available from Baker Hughes Inc.). The solution was mixed with an overhead stirrer. 52 mL of crosslinked fluid was loaded on to a Chandler HTHP 5500 Viscometer and run at 500 psi, 150° F., and 100 s^−1 for an hour.
To compare the effects of phosphate and sulfate a solution was made comprising: 17 ppt of guar polymer, GW-3LDF; 1 gpt of clay stabilizer, Claytreat-3C; 1.5 gpt of buffer, BF-7L; 1 gpt of crosslinking agent, XLW-32; 1 gpt mannanohydrolase, GBW-22C, diluted 1/100 with distilled water; and 1 gpt of a 1% wt. solution of K2HPO4 (all components available from Baker Hughes Inc.).

- difference in enzyme activity between high and smaller concentrations of the effector (FIG. 3) (3 g/L versus 1 gpt 20% wt. Na2SO4 or 2 mg/L, 100 s^−1): does not appear to be a difference
SMILES: O=S(=O)([O-])[O-].[Na+].[Na+] [Na2SO4]
- effect of the effector on activity of the mannanohydrolase enzyme against the guar polymer (FIG. 3) (17 ppt GW-3LDF guar, XLW-32 crosslinker, 1 gpt GBW-22C diluted 1/100, 1 gpt of 1% wt. Na2SO4, 100 s^−1, one hour): drastically improves the activity of the mannanohydrolase enzyme
